The target of the test is Thromboxane-A synthase (Oryctolagus cuniculus). Kind of test: Inhibitory activity against rabbit thromboxane synthetase.

For orientation: IC50 means the concentration at which inhibition is half-maximal.

Structures can show the parent of a compound that is named as a salt.

`O=C(O)C1(CCCCCCn2ccnc2)CCCCC1` [1-(6-Imidazol-1-yl-hexyl)-cyclohexanecarboxylic acid; hydrochloride] yielded an IC50 of 46 nM. With `CC(CCCCCCn1ccnc1)C(=O)O` (stereo not drawn) [8-Imidazol-1-yl-2-methyl-octanoic acid; hydrochloride] the figure was 30 nM; with `O=C(O)C(CCCCCCn1ccnc1)c1ccccc1` (stereo not drawn) [8-Imidazol-1-yl-2-phenyl-octanoic acid; hydrochloride], 38 nM; with `CC(C)(CCCCn1ccnc1)CCC(=O)O` [8-Imidazol-1-yl-4,4-dimethyl-octanoic acid; hydrochloride], 71 nM.

`CC(C)(CCCCCCC(=O)O)n1ccnc1` [8-Imidazol-1-yl-8-methyl-nonanoic acid; hydrochloride]: the IC50 turned out to be 90 nM.

With `O=C(O)/C=C/CCCCCn1ccnc1` [8-Imidazol-1-yl-oct-2-enoic acid; hydrochloride], the midpoint of inhibition, the IC50, lay at 70 nM. With `O=C(O)/C=C\CCCCCn1ccnc1` [8-Imidazol-1-yl-oct-2-enoic acid] the figure was 16 nM. `O=C(O)CCCC/C=C\Cn1ccnc1` [8-Imidazol-1-yl-oct-6-enoic acid; hydrochloride] registered a half-inhibitory concentration (IC50) of 56 nM.
